In BindingDB's records for patent US10301272 (Phenex Pharmaceuticals, 2019) one finds IC50 data, which are given here for 3 compounds.

Molecules are shown by their SMILES.

In general, IC50 refers to the midpoint of a concentration-inhibition curve. A higher IC50 goes with weaker potency.

The target of this experiment is T1, Isoform 2 of Nuclear receptor ROR-gamma (RORgT) (Homo sapiens, UniProt P51449).
T1 sequence (P51449 whole entry): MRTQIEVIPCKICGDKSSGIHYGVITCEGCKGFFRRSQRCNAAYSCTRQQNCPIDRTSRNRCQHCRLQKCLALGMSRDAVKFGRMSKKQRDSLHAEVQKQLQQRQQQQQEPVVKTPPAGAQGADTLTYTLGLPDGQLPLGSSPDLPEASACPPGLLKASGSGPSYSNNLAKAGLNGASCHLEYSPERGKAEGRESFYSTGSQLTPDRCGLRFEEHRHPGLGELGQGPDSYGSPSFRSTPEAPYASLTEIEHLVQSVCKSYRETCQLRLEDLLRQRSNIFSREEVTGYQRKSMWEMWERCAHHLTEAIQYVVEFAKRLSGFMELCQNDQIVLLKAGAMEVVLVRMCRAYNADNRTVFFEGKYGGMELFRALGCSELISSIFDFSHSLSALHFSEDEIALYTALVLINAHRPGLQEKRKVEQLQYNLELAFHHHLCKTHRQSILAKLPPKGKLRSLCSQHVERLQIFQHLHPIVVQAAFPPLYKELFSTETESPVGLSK
In words: RORgamma Gal4 Reporter Gene Assay (FRET). As to the method: Determination of a ligand mediated Gal4 promoter driven transactivation to quantify ligand binding to RORγ was performed as follows: DNA encoding three different RORγ protein fragments was cloned into vector pCMV-BD (Stratagene). Expression was under control of a CMV promoter and as fusion to the DNA-binding domain of the yeast protein GAL4. Other vectors used were pFR-Luc (Stratagene) as regulated reporter plasmid. pFR-Luc contains a synthetic promoter with five tandem repeats of the yeast GAL4 binding sites that control expression of the Photinus pyralis (American firefly) luciferase gene. In order to improve experimental accuracy the plasmid pRL-CMV was cotransfected. pRL-CMV contains the constitutive CMV promoter, controlling the expression of the Renilla reniformis luciferase. […] The medium is supplemented with 10% fetal bovine serum, 0.1 mM nonessential amino acids, 1 mM sodium pyruvate, 1% Glutamax and 100 units Penicilin/[…] per mL at 37° C. in 5% CO2.For the assay, […] cells were plated per well in 96 well plates in 100 μL per well, incubated over night at 37° C. in 5% CO2. […] About 4 h after addition of the transfection solution, fresh Minimal Essential Medium (MEM, same composition as used for plating cells, but without serum) was added.
Background: Reporter assays use an easily measured gene product as a stand-in for the process of interest.
For the compound `CC(C)(C)NS(=O)(=O)c1ccc(-c2sc(C(=O)NC3CCOCC3)nc2CC2CCCCC2)cc1C(F)(F)F` [US10301272, Example 9], it took 63.1 nM to reach half-maximal inhibition (IC50).

On to `CC(C)(O)CNC(=O)c1nc(CC2CCC2)c(-c2ccc(S(=O)(=O)NC(C)(C)C)c(Cl)c2OC(F)F)s1` [US10301272, Example 21/1], for which the IC50 came out at 251 nM.

`CCOC(=O)c1nc(Cc2ccccc2)c(-c2ccc(S(=O)(=O)NC(C)(C)C)c3ccccc23)s1` [US10301272, Example 202] had an IC50 of 63.1 nM.
